From ChEMBL document CHEMBL3399966, “Isosteric replacements of the carboxylic acid of drug candidate VX-787: Effect of charge on antiviral potency and kinase activity of azaindole-based influenza PB2 inhibitors” (Bioorg Med Chem Lett, 2015) come the findings set out here.

By pIC50 is commonly meant the IC50 on a negative log10 scale, so that one unit is a factor of ten. Usually pEC50 stands for the EC50 on a negative log10 scale, so that one unit is a factor of ten. By EC99 is commonly meant the point of the concentration-response curve where the effect stands at 99%. What is called pKi is the negative decadic logarithm of the Ki, by convention in mol/L. High values mean a small Ki, low ones a large Ki. By Ki is commonly meant a dissociation constant, usually derived from enzyme kinetics or from competition with a known ligand. A high value points to a looser hold on the target.

pEC50, pIC50, pKi: −log10 of the molar value.

In test [1] the test system is Influenza A virus. The test can be described thus: Antiviral activity against Influenza A virus A/PR/8/34 strain incubated with MDCK cells assessed as cell protection after 72 hrs by phenotypic cell protection assay. In kind it is functional, organism-based. To be noted: A/Puerto Rico/8/1934(H1N1).
Test [2] has as its system Influenza A virus. The test can be described thus: Antiviral activity against influenza A virus A/PR/8/34 strain incubated with MDCK cells assessed as reduction of viral RNA level equal to 1% of control level after 72 hrs by branched DNA assay. In kind it is functional, organism-based. To be noted: A/Puerto Rico/8/1934(H1N1).
Test [3] has as its target Tyrosine-protein kinase JAK2 (Homo sapiens, UniProt O60674). The test can be described thus: Inhibition of JAK2 (unknown origin).
Test [4] concerns the target Glycogen synthase kinase-3 (Homo sapiens, UniProt P49840+P49841). The test can be described thus: Inhibition of GSK3 (unknown origin). In kind it is protein assay.
Test [5] addresses T1, Receptor-type tyrosine-protein kinase FLT3 (Homo sapiens, UniProt P36888).
T1 sequence (P36888 whole entry): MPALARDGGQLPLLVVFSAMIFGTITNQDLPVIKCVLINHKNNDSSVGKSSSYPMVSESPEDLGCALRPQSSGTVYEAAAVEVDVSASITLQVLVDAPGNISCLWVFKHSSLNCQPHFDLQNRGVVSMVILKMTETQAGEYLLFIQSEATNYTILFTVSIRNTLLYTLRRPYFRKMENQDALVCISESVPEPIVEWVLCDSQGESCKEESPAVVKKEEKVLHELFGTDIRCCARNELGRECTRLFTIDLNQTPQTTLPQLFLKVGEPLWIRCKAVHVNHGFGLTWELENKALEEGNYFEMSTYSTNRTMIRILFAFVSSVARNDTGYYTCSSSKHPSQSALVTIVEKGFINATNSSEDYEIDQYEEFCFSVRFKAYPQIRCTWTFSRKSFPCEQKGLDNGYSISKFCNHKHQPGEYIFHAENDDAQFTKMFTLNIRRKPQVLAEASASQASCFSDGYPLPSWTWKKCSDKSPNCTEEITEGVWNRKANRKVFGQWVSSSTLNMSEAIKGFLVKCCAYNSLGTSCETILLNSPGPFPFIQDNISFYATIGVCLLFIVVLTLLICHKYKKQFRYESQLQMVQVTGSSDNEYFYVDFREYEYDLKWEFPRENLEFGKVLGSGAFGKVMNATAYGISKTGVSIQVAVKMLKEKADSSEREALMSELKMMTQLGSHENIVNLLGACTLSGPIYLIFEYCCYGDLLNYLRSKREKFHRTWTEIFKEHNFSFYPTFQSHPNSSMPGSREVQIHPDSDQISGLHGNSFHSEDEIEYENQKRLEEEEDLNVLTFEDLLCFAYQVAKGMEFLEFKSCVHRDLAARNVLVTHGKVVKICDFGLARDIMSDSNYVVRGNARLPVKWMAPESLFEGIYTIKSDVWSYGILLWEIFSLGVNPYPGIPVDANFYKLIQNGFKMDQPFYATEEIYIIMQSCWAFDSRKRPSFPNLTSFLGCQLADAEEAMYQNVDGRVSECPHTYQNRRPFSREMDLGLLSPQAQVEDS
The test can be described thus: Inhibition of FLT3 (unknown origin).

Test [6] has as its target Mitogen-activated protein kinase 10 (Homo sapiens, UniProt P53779). The test can be described thus: Inhibition of JNK3 (unknown origin).
The target of test [7] is Rho-associated protein kinase (Homo sapiens, UniProt O75116+Q13464). The test can be described thus: Inhibition of ROCK (unknown origin). In kind it is protein-complex assay.
Test [8] has as its target Vascular endothelial growth factor receptor 2 (Homo sapiens, UniProt P35968). The test can be described thus: Inhibition of KDR (unknown origin).
Test [9] addresses Proto-oncogene tyrosine-protein kinase Src (Homo sapiens, UniProt P12931). The test can be described thus: Inhibition of SRC (unknown origin).
Test [10] has as its target cAMP-dependent protein kinase catalytic subunit alpha (Homo sapiens, UniProt P17612). The test can be described thus: Inhibition of PKAa (unknown origin).
Test [11] addresses T2, Interleukin-1 receptor-associated kinase 4 (Homo sapiens, UniProt Q9NWZ3).
T2 sequence (Q9NWZ3 whole entry): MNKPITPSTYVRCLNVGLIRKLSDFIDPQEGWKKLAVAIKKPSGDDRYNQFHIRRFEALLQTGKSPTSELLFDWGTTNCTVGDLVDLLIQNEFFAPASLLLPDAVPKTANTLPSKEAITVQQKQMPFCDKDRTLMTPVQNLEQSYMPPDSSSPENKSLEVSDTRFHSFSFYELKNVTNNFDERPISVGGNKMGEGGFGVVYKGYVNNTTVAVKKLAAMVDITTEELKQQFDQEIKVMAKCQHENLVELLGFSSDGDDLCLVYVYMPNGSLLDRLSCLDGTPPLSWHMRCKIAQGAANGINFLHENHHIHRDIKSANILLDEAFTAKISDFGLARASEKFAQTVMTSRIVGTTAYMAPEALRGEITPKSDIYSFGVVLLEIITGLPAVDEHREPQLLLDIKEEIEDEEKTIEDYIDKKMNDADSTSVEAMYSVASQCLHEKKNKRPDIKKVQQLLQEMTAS
The test can be described thus: Inhibition of IRAK4 (unknown origin).

Test [12] addresses Tyrosine-protein kinase SYK (Homo sapiens, UniProt P43405). The test can be described thus: Inhibition of SYK (unknown origin).
Test [13] has as its target Cyclin-dependent kinase 2 (Homo sapiens, UniProt P24941). The test can be described thus: Inhibition of CDK2 (unknown origin).
Test [14] concerns the target Serine/threonine-protein kinase PLK1 (Homo sapiens, UniProt P53350). The test can be described thus: Inhibition of PLK (unknown origin).
Test [15] concerns the target Hepatocyte growth factor receptor (Homo sapiens, UniProt P08581). The test can be described thus: Inhibition of MET (unknown origin).
For test [16], the target named is Phosphatidylinositol 4,5-bisphosphate 3-kinase catalytic subunit alpha isoform (Homo sapiens, UniProt P42336). The test can be described thus: Inhibition of PI3Kalpha (unknown origin).
The target in test [17] is T3, Phosphatidylinositol 4,5-bisphosphate 3-kinase catalytic subunit delta isoform (Homo sapiens, UniProt O00329).
T3 sequence (O00329 whole entry): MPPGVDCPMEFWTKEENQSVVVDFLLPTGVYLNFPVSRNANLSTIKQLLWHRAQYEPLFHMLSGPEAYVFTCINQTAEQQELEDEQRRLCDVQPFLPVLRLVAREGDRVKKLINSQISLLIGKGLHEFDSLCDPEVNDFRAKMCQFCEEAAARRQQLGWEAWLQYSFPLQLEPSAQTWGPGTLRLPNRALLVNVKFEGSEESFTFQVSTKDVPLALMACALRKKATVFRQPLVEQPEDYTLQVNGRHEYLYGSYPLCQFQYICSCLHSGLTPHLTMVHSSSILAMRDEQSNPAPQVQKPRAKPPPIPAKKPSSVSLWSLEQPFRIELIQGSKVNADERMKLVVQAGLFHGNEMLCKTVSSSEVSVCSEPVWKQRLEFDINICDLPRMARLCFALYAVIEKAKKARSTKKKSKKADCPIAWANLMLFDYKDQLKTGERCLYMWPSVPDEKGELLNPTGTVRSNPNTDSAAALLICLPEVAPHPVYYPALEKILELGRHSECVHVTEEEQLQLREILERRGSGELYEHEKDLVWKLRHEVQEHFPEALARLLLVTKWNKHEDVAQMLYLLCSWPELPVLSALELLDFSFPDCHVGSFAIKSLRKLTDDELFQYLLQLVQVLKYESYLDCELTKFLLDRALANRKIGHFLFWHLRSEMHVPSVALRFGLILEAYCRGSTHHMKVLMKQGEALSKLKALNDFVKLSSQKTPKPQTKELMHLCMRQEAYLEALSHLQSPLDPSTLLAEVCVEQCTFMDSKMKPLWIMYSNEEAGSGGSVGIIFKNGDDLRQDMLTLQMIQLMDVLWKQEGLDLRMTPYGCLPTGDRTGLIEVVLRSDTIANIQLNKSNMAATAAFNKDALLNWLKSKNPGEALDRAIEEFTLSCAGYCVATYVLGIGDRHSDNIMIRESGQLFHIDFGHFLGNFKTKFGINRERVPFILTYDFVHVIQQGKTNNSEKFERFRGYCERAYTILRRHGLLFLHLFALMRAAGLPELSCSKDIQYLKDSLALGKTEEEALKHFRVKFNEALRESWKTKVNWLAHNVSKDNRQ
The test can be described thus: Inhibition of PI3Kdelta (unknown origin).

Test [18] deals with Phosphatidylinositol 4,5-bisphosphate 3-kinase catalytic subunit gamma isoform (Homo sapiens, UniProt P48736). The test can be described thus: Inhibition of PI3Kgamma (unknown origin).
Chain of Phosphatidylinositol 4,5-bisphosphate 3-kinase catalytic subunit gamma isoform (P48736 whole entry, canonical isoform): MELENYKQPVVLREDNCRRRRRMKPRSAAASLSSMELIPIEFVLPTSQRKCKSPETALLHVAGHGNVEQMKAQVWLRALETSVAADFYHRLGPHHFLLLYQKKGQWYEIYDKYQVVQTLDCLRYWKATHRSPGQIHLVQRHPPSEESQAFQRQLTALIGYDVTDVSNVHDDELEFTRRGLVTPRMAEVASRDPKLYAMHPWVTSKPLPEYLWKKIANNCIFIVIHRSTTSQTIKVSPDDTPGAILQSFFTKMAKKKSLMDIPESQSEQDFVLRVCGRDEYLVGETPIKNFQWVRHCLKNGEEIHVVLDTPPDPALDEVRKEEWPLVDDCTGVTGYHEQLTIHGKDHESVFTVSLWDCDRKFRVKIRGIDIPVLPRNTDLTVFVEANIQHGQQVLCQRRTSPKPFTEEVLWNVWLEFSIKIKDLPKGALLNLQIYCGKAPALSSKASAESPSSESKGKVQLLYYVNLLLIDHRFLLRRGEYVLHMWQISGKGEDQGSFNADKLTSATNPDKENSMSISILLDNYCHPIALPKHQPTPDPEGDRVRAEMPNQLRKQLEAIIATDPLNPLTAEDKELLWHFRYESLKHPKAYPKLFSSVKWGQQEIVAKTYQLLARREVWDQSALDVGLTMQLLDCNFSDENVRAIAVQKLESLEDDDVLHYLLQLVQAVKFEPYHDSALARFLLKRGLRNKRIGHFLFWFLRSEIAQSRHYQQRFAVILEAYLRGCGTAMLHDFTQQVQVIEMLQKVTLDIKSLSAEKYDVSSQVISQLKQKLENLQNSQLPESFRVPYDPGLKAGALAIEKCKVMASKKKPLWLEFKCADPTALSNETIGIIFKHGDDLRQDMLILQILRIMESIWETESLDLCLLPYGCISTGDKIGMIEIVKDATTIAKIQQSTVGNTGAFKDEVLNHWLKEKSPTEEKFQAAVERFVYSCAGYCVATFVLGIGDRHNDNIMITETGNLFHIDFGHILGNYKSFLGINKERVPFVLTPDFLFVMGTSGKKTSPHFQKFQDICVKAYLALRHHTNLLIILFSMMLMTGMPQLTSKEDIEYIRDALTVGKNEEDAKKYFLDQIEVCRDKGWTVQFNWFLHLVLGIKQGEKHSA
Test [19] has as its target Phosphatidylinositol 4,5-bisphosphate 3-kinase catalytic subunit beta isoform (Homo sapiens, UniProt P42338). The test can be described thus: Inhibition of PI3Kbeta (unknown origin).

Chain of Vascular endothelial growth factor receptor 2 (P35968 whole entry): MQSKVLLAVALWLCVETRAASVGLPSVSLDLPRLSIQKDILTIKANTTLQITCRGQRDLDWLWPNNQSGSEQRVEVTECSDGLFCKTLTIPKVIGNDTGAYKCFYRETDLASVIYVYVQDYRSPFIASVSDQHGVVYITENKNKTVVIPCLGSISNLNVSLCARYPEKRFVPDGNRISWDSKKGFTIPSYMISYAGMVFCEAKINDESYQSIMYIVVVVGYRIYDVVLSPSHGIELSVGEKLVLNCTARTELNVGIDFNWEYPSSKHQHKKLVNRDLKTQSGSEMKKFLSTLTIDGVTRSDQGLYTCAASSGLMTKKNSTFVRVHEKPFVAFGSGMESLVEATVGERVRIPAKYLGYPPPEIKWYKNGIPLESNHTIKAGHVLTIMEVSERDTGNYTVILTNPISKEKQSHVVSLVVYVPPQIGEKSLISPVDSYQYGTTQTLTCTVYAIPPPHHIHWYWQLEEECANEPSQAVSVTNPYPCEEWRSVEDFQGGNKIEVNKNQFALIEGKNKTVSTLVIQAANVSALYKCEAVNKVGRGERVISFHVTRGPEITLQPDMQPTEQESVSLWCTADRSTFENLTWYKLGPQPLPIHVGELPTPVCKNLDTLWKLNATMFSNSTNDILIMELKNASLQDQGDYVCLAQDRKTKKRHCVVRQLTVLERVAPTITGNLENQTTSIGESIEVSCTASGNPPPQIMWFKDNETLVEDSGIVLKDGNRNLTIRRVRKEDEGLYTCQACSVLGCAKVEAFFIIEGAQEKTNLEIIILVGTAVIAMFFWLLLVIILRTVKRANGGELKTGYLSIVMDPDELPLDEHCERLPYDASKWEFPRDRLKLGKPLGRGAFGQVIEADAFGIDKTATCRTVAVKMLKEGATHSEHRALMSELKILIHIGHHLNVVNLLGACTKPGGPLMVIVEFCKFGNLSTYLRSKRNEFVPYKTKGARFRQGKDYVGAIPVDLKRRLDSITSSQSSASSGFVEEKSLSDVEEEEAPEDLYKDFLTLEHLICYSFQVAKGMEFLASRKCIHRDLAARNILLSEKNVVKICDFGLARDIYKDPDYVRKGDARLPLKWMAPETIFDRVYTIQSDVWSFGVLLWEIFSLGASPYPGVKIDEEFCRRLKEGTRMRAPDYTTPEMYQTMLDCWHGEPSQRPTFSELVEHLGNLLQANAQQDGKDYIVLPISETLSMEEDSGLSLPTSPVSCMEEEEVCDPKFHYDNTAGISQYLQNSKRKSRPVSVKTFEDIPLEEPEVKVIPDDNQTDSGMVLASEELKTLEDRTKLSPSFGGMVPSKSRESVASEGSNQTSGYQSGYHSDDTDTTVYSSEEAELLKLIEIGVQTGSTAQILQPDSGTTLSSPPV
Chain of Tyrosine-protein kinase JAK2 (O60674 whole entry): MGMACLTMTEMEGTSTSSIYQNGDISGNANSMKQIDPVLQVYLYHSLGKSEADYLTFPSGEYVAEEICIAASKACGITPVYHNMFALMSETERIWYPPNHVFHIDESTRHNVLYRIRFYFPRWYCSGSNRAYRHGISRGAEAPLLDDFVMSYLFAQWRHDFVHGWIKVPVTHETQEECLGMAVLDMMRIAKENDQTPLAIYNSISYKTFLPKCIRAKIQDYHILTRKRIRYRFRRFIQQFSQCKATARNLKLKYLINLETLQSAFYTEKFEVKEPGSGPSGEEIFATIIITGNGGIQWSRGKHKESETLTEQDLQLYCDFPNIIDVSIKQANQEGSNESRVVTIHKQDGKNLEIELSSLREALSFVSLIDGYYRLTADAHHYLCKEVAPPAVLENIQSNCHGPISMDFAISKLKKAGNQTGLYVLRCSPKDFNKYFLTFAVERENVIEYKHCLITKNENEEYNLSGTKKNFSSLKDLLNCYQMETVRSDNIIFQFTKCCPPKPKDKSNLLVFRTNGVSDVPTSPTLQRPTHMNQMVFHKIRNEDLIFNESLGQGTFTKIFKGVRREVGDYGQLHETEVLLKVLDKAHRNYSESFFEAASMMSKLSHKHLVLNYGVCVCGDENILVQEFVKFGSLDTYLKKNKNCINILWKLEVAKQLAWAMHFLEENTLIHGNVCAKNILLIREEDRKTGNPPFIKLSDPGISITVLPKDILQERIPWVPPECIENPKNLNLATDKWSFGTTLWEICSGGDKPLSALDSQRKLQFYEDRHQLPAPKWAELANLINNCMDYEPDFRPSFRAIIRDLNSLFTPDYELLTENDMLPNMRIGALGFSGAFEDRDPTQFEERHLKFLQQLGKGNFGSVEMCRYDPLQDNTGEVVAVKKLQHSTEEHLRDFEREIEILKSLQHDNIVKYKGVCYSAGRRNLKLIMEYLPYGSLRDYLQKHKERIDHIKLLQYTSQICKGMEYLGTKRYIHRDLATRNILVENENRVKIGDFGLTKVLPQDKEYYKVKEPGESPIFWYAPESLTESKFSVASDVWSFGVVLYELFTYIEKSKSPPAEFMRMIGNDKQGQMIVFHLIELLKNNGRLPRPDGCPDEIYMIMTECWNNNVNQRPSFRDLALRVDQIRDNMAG
Chain of Serine/threonine-protein kinase PLK1 (P53350 whole entry): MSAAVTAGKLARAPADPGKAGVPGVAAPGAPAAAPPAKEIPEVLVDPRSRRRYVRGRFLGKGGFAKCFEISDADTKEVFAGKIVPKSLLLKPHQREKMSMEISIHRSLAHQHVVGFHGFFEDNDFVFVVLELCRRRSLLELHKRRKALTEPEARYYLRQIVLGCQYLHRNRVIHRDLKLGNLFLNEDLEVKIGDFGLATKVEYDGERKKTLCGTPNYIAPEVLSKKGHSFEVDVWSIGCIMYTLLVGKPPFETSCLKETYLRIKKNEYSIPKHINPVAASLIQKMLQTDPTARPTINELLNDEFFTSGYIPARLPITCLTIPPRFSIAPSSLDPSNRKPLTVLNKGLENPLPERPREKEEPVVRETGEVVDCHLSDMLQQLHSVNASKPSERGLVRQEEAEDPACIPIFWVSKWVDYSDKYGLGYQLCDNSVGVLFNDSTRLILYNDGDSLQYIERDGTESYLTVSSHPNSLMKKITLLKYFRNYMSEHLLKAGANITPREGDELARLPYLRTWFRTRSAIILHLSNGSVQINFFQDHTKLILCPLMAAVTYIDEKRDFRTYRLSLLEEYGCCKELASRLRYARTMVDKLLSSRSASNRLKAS
Chain of Mitogen-activated protein kinase 10 (P53779 whole entry): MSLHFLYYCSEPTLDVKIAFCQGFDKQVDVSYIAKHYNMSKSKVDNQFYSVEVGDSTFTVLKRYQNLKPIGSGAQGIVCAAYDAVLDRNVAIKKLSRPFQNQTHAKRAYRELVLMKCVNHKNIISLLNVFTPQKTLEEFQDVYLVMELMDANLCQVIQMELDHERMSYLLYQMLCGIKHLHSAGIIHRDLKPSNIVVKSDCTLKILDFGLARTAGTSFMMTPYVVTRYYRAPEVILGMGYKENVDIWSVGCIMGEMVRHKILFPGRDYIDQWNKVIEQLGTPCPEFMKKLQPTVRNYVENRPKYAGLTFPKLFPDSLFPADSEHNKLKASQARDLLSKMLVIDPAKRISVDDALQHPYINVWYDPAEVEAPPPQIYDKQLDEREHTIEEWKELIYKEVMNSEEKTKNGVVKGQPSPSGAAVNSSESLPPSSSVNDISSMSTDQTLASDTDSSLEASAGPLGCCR

Consider `Oc1cc([C@H]2C3CCC(CC3)[C@@H]2Nc2nc(-c3c[nH]c4ncc(F)cc34)ncc2F)no1` (mixture of isomers), for which the pIC50 in [1] was 7.14. In addition, the pEC50 in test [2] is 7.96. The EC99 in test [2] was determined as 0.062 µM. Further, the pKi in test [3] was 6.70; in test [5], 6.10; in [6] it was under 5.40; in test [8], under 5.40; in test [9], under 5.40; in test [10], 6.23. Further, the pKi in test [11] is under 5.40; in [12], under 5.40; in test [13], under 5.40; in [14] it was 6.00; in [15], under 5.40; in test [16], 6.06. In addition, the pKi in test [17] was under 5.40; in [18] it was 6.12; in test [19], under 5.40. The Ki in test [4] is 60 nM; in test [7], over 4000 nM.

For the compound `O=P(O)(O)CC[C@H]1C2CCC(CC2)[C@@H]1Nc1nc(-c2c[nH]c3ncc(F)cc23)ncc1F` (mixture of isomers), the pIC50 in test [1] was 6.70. The pEC50 in [2] was 6.48. Moreover, in [2], the EC99 is 2.1 µM. For the same compound, the pKi is 6.21 in test [3]; under 5.40 in [5]; under 5.40 in [6]; under 5.40 in [8]; under 5.40 in test [9]; under 5.40 in test [10]. Also, the pKi in test [11] was under 5.40; in test [12] it was under 5.40; in test [13], under 5.40; in test [14], 6.49; in [15] it was under 5.40; in test [16], 6.07. Further, the negative-log Ki (pKi) in [17] is 5.51; in test [18], 6.40; in test [19] it was under 5.40. Besides, the Ki in test [4] came to 120 nM; in test [7], 250 nM.

As for `Cc1noc([C@H]2C3CCC(CC3)[C@@H]2Nc2nc(-c3c[nH]c4ncc(F)cc34)ncc2F)n1` (mixture of isomers), the pIC50 in test [1] is 6.68. For the same compound, in [2], the pEC50 is 6.92. In addition, the EC99 in test [2] was found to be 1.2 µM. Besides, the negative-log Ki (pKi) is under 5.40 in [3]; 6.01 in [5]; under 5.40 in [6]; under 5.40 in [8]; 5.62 in test [9]; 5.96 in test [10]. For the same compound, the pKi in test [11], in test [12], in [13], in [14], in test [15] and in test [16] was under 5.40 throughout. For the same compound, the values for the pKi in test [17], in [18] and in test [19] were 5.60, 5.85 and 5.64, respectively. The Ki is 980 nM in test [4] and over 4000 nM in [7].

With `OCC(O)[C@H]1C2CCC(CC2)[C@@H]1Nc1nc(-c2c[nH]c3ncc(F)cc23)ncc1F` (mixture of isomers), the pIC50 in [1] was 7.17. In addition, in test [2], the pEC50 was 7.39. Further, the EC99 in [2] was found to be 0.18 µM. The pKi was 6.41 in [3]; 6.80 in [5]; under 5.40 in [6]; 5.62 in [8]; 5.46 in test [9]; 6.64 in test [10]. In addition, the pKi in test [11] was 5.57; in [12], 5.47; in test [13], under 5.40; in test [14] it was 6.29; in test [15], under 5.40; in test [16] it was 5.59. The pKi is 5.80 in [17], 6.15 in test [18] and 5.60 in [19]. Besides, the Ki in test [4] amounted to 78 nM; in [7] it was 1500 nM.

With `O=C(O)[C@H]1C2CCC(CC2)[C@@H]1Nc1nc(-c2c[nH]c3ncc(F)cc23)ncc1F` [PIMODIVIR], in test [1], the negative-log IC50 (pIC50) is 8.70. Also, in test [2], the pEC50 was 8.70 and the EC99 came to 0.011 µM. In addition, the pKi in [3] was under 5.40. The compound also displayed a Ki in test [4] of 1600 nM. The pKi in test [5] was under 5.40.

Take `O=c1nc([C@H]2C3CCC(CC3)[C@@H]2Nc2nc(-c3c[nH]c4ncc(F)cc34)ncc2F)[nH]o1` (mixture of isomers): in [2], the pEC50 was 7.54. Further, the EC99 in test [2] stood at 0.14 µM. The pKi in test [3], in test [5], in test [6], in test [8], in test [9] and in test [10] was under 5.40 throughout. In addition, the negative logarithm of the Ki (pKi) in test [11], in [12], in test [13], in test [14], in test [15] and in [16] was under 5.40 in each case. The pKi in test [17], in [18] and in test [19] was under 5.40 in each case. Besides, the Ki in test [4] and in test [7] was over 4000 nM throughout.
